# Experimental data as given in article PMC9837035 (Nature Communications, 2023).
# Values joined by “and” are separate entries in the source; they are usually repeats but may differ in a detail not shown here. Equal entries are not always repeated.
# Key:
# [1] = system: rat myoblast cell line H9c2; experiment: Cell viability assay (WST-8), H9c2; format: cell-based; conditions: control (0 μM) = 100
# Experimental: (§1) A WST-8 (2-(2-methoxy-4-nitrophenyl)-3-(4-nitrophenyl)-5-(2,4-disulfophenyl)-2H-tetrazolium) assay using a Cell Counting Kit-8 (DOJINDO) was performed to measure cell viability using an EnSpire microplate reader (PerkinElmer).
# HUDEP-2 cells = experiment: Cell viability assay (WST-8), HUDEP-2; format: cell-based, human; conditions: control (0 μM) = 100
# Experimental: as §1
# mice = experiment: Mouse acute toxicity assay, survival; format: in vivo; conditions: intravenous, 2-week observation
# Experimental: All animal studies were approved by the Institutional Committee for Animal Experiments of the Institute of Microbial Chemistry, and were performed in accordance with relevant guidelines and regulations to minimize animal suffering. Four-week-old female ICR mice were purchased from Charles River Breeding Laboratories (Yokohama, Japan) and maintained in a specific pathogen-free barrier facility. […] Samples were dissolved in saline containing 10% DMSO and 1% Tween 80 and injected intravenously into mice.
# [2] = system: BGLT3 RNA in HUDEP-2 cells; experiment: RT-qPCR of BGLT3 in HUDEP-2 cells; format: cell-based, human; conditions: relative to DMSO = 1, replicate values; for BGLT3 expression in HUDEP-2 cells: Sup.Fig.11a
# Experimental: (§2) Total cellular RNA was prepared using the Tissue Total RNA Mini Kit (FAVORGEN), and cDNA was synthesized using ReverTra Ace Master Mix (TOYOBO). Expression of target genes was analyzed using THUNDERBIRD SYBR qPCR Mix (TOYOBO) on a CFX Connect Real Time System (Bio-Rad). The qPCR data were acquired on CFX Maestro (Bio-Rad). Primers are listed in Supplementary Table 10. GAPDH was used as a reference. Primers were purchased from INTEGRATED DNA TECHNOLOGIES or FASMAC.
# [3] = system: BGLT3-knockdown HUDEP-2 cells; experiment: RT-qPCR of BGLT3, β- and γ-globin in BGLT3-knockdown HUDEP-2 cells; format: cell-based, human; conditions: 1 μM, relative to shctrl DMSO = 1, replicate values
# Experimental: as §2
# Retroviral infection was used as previously described to establish cell lines stably expressing BGLT3 and transfected with the pCX4-pur vector, as well as knockdown cell lines transfected with the pSUPER vector[58]. Briefly, retroviruses were produced by transfecting PLAT-E cells with pCX4-pur-BGLT3 or pSUPER-ctrl, pSUPER-BGLT3, or pSUPER-G9a using 5 μg/mL polyethylenimine MAX (PEI MAX, Polysciences). Two days after transfection, the culture supernatant was collected and filtered through a 0.45-μm filter (Millipore) and used for infection with 8 μg/mL polybrene (Sigma). Forty-eight hours after infection, the infected cells were selected with 0.2 μg/mL puromycin (InvivoGen). The clonal puromycin-resistant cells were established via limiting dilution. The desired clones were confirmed by western blotting or qPCR.
# G9a = biological target: T1, G9a (Homo sapiens, UniProt Q96KQ7); experiment: In vitro G9a methyltransferase assay (AlphaLISA-based); format: biochemical; design: purchased BPS Bioscience
# T1 sequence (Q96KQ7 1-1210): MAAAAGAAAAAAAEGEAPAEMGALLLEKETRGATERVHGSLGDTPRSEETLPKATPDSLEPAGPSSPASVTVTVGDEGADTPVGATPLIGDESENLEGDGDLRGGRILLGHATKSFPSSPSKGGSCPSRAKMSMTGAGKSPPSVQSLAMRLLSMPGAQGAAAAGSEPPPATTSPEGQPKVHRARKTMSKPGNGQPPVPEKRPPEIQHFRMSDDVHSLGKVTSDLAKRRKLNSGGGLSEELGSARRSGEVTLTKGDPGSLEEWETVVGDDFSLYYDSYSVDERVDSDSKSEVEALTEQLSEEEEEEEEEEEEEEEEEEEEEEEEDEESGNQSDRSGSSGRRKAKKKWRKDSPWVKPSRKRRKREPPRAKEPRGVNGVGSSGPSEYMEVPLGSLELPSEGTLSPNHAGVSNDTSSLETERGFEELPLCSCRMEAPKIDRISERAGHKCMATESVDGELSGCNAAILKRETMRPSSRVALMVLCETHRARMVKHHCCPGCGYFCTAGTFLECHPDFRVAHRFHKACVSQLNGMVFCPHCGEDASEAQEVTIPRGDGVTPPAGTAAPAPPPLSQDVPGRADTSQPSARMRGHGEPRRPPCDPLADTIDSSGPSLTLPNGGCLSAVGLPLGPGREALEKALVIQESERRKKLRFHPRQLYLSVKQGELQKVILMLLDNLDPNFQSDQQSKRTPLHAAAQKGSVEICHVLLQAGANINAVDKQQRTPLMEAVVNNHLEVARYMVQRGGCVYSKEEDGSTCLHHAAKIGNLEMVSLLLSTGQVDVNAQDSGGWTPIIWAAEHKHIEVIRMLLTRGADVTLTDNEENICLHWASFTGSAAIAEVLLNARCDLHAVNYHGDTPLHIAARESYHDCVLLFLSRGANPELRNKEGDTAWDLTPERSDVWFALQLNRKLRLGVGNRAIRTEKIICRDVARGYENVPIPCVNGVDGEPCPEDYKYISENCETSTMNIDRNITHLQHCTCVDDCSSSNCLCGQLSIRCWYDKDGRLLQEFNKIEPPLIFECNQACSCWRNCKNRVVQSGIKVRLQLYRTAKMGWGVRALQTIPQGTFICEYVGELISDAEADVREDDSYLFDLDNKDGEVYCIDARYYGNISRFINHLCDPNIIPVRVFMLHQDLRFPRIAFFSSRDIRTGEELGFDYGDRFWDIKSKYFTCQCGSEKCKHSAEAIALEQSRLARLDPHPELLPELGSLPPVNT
# Experimental: An amplified luminescence proximity homogeneous assay (ALPHA) was performed with a modified version of a previously described method. Recombinant G9a proteins (BPS Bioscience) were incubated with 15 μM S-adenosyl-methionine (Sigma) and 50 nM biotinylated histone H3 (1-21; AnaSpec) in the assay buffer (50 mM Tris-HCl (pH 9.0), 50 mM NaCl, 0.01% Tween-20, and 1 mM DTT). After incubation at room temperature for 1 h, AlphaLISA anti-H3K9me2 acceptor beads (final concentration 10 μg/mL, PerkinElmer, AL117C) and AlphaScreen streptavidin donor beads (final concentration 10 μg/mL, PerkinElmer, 6760002B) were added and incubated for an additional 1 h prior to detection of the alpha signal with an EnSpire Alpha plate reader (PerkinElmer). ALPHA profile was analyzed using Origin (OriginLab).
# [4] = system: Salmonella typhimurium TA100; experiment: Ames test, TA100
# Experimental: (§3) The Salmonella mutagenicity assay was performed by pre-incubating the test compounds for 20 min with Salmonella typhimurium strains TA98 and TA100, with and without metabolic activation (S9 mixture).
# (§4) After this time 2 mL of top agar was added to the mixture and poured on to a plate containing minimum agar. The plates were incubated at 37 °C for 49 h and the His ± revertant colonies were counted manually and automatically by a colony counter (Colony analyzer CA-11D systems, System science Co.,Ltd.). The influence of metabolic activation was tested by adding 500 μL of 10% S9 mixture. All experiments were performed in duplicate. […] DMSO served as the negative control (100 μL/plate). The mutagenic index (MI, the average number of revertants per plate divided by the average number of revertants per plate from the negative control) was also calculated for each dose. A sample was considered positive when the MI was equal to or greater than 2 for at least one of the tested doses.
# [5] = system: Salmonella typhimurium TA98; experiment: Ames test, TA98
# Experimental: as §3, §4
# [6] = system: β- and γ-globin genes in HUDEP-2 cells; experiment: RT-qPCR of β- and γ-globin in HUDEP-2 cells; format: cell-based, human; conditions: single agents or combination; relative to DMSO = 1; replicate values
# Experimental: as §2
# [7] = G9a activity, AlphaLISA-based assay, mean of three experiments
# [8] = Sup.Table1, three replicate values
structure (smiles),measurement,setting,value
COc1cc2c(cc1OCCCN1CCCC1)N=C(N)C21CCC1 [A-366],cell viability in H9c2 cells,[1]; 0.039 μM,104.360 and 99.467 and 89.907
same,cell viability in H9c2 cells,[1]; 0.156 μM,95.640 and 83.067 and 81.211
same,cell viability in H9c2 cells,[1]; 0.625 μM,92.264 and 78.533 and 78.882
same,cell viability in H9c2 cells,[1]; 2.5 μM,78.059 and 64.000 and 71.429
same,cell viability in H9c2 cells,[1]; 10.0 μM,53.868 and 49.733 and 52.329
same,cell viability in HUDEP-2 cells,HUDEP-2 cells; 0.00457247 μM,82.0673 and 97.2549 and 93.6968
same,cell viability in HUDEP-2 cells,HUDEP-2 cells; 0.0137174 μM,88.332 and 96 and 98.8075
same,cell viability in HUDEP-2 cells,HUDEP-2 cells; 0.0411523 μM,83.007 and 93.4902 and 87.9046
same,cell viability in HUDEP-2 cells,HUDEP-2 cells; 0.123457 μM,84.5732 and 96 and 89.6082
same,cell viability in HUDEP-2 cells,HUDEP-2 cells; 0.37037 μM,79.2482 and 92.549 and 93.6968
same,cell viability in HUDEP-2 cells,HUDEP-2 cells; 1.11111 μM,81.1276 and 90.6667 and 88.586
same,cell viability in HUDEP-2 cells,HUDEP-2 cells; 3.33333 μM,67.9718 and 80.3137 and 66.7802
same,cell viability in HUDEP-2 cells,HUDEP-2 cells; 10 μM,52.3101 and 64.9412 and 58.9438
same,Number of alive mice,mice; 0.1953125 mg/kg,3/3
same,Number of alive mice,mice; 0.390625 mg/kg,3/3
same,Number of alive mice,mice; 0.78125 mg/kg,3/3
same,Number of alive mice,mice; 1.5625 mg/kg,0/3
same,Number of alive mice,mice; 3.125 mg/kg,0/3
Nc1ccccc1NC(=O)c1ccc(CNC(=O)OCc2cccnc2)cc1 [MS-275],BGLT3 expression in HUDEP-2 cells,[2],14.3147 and 21.8274 and 19.7082
same,β-globin gene in BGLT3-knockdown HUDEP-2 cells,[3]; shBGLT3 #1,3.1513 and 3.12 and 3.5502
same,γ-globin gene in BGLT3-knockdown HUDEP-2 cells,[3]; shBGLT3 #1,20.155 and 19.0925 and 20.8632
same,β-globin gene in BGLT3-knockdown HUDEP-2 cells,[3]; shBGLT3 #2,2.766 and 2.148 and 2.288
same,γ-globin gene in BGLT3-knockdown HUDEP-2 cells,[3]; shBGLT3 #2,8.523 and 7.607 and 25.7598
same,β-globin gene in BGLT3-knockdown HUDEP-2 cells,[3]; shBGLT3 #3,1.145 and 1.259 and 1.535
same,γ-globin gene in BGLT3-knockdown HUDEP-2 cells,[3]; shBGLT3 #3,19.0595 and 19.9736 and 20.0664
same,β-globin gene in BGLT3-knockdown HUDEP-2 cells,[3]; shctrl,4.7699 and 6.2041 and 4.688
same,γ-globin gene in BGLT3-knockdown HUDEP-2 cells,[3]; shctrl,47.2575 and 62.7038 and 44.6998
COC(=O)c1ccc2nc([C@H](CCSC)NC(=O)c3[nH]c4c(c3C)C(=O)CC(C)(C)C4)[nH]c2c1 [compound 8],IC50,G9a; [7],21.3 µM
same,IC50,G9a; [8],24.6 µM and 20.7 µM and 18.7 µM
"NC(=O)C(=Cc1ccc([N+](=O)[O-])o1)c1ccco1 [AF-2, 2-(2-furyl)-3-(5-nitro-2-furyl)acrylamide, reference compound]",Number of reverants/plate,"[4]; TA100, - S9, base pair substitution mutation, 0.01 μg/plate",725 and 728
same,Number of revertants/plate,"[4]; TA100, -S9, 0.01 μg/plate, positive control",727
same,Number of reverants/plate,"[5]; TA98, - S9, frameshift mutation, 0.1 μg/plate",497 and 507
same,Number of revertants/plate,"[5]; TA98, -S9, 0.1 μg/plate, positive control",502
CSCC[C@H](NC(=O)c1[nH]c2c(c1C)C(=O)CC(C)(C)C2)C(=O)Nc1ccccc1 [compound 9],IC50,G9a; [7],0.3 µM
same,IC50,G9a; [8],0.299 µM and 0.291 µM and 0.316 µM
Nc1ncn([C@H]2C[C@H](O)[C@@H](CO)O2)c(=O)n1 [decitabine],β-globin expression in HUDEP-2 cells treated with RK-701 and decitabine,[6],0.9105 and 1.679 and 1.802
same,γ-globin expression in HUDEP-2 cells treated with RK-701 and decitabine,[6],5.299 and 8.189 and 8.892
same,BGLT3 expression in HUDEP-2 cells,[2],2.269 and 2.6404 and 2.1358
same,BGLT3 expression in HUDEP-2 cells treated with RK-701 and decitabine,[2]; single agents or combination,3.3143 and 2.772 and 4.351
same,β-globin gene in BGLT3-knockdown HUDEP-2 cells,[3]; shBGLT3 #1,0.735 and 0.7829 and 0.8722
same,γ-globin gene in BGLT3-knockdown HUDEP-2 cells,[3]; shBGLT3 #1,2.413 and 2.581 and 2.465
same,β-globin gene in BGLT3-knockdown HUDEP-2 cells,[3]; shBGLT3 #2,0.6218 and 0.5853 and 0.4869
same,γ-globin gene in BGLT3-knockdown HUDEP-2 cells,[3]; shBGLT3 #2,2.574 and 2.659 and 3.171
same,β-globin gene in BGLT3-knockdown HUDEP-2 cells,[3]; shBGLT3 #3,0.8092 and 0.8421 and 1.086
same,γ-globin gene in BGLT3-knockdown HUDEP-2 cells,[3]; shBGLT3 #3,1.425 and 1.467 and 1.465
same,β-globin gene in BGLT3-knockdown HUDEP-2 cells,[3]; shctrl,0.8786 and 0.8917 and 0.7285
same,γ-globin gene in BGLT3-knockdown HUDEP-2 cells,[3]; shctrl,8.583 and 10.749 and 7.48
